Test results: US8835392B2, “Mimetic peptides and the use thereof in the form of 20S, 26S and immunoproteasome inhibitors” (Technische Universität, priority 2005, dated 2014)
Entries after “also recorded” stand apart in the source; their conditions may differ. Where a SMILES comes first, the peptide text is derived from it. The star is where a group is joined. Cbz = O=C(OCc1ccccc1)*; OtBu = CC(C)(C)O*

Assays:
[1] = molecular target: T1, 20S proteasome β5 chymotrypsin-like activity (Suc-LLVY-AMC) (Homo sapiens, UniProt P20618+P28074); assay: Protease assay, chymotrypsin-like activity of isolated 20S proteasomes (LLVY substrate); format: biochemical; settings: isolated 20S proteasome; LLVY-MCA 50 μM; 15 min pre-incubation; read-out: IC50 β5 Chymotrypsin-like (Y)
T1 construct: Proteasomes were isolated from red blood cells; from tissue; host or cells: red blood cells
Description: (§1) Proteasomes were isolated from red blood cells. Cells were lysed with DTT (1 mM), and the stroma-free supernatant was loaded on DEAE-sepharose (Toyopearls). Proteasome was eluted with an NaCl-gradient in TEAD (20 mM TrisCl pH 7.4, 1 mM EDTA, 1 mM azide, 1 mM DTT) of 100 to 300 mM NaCl. Proteasome was concentrated using ammonium sulfate-precipitation (between 40 and 70% saturation) and was separated in a 10-40% sucrose-gradient through centrifugation at 40.000 rpm for 16 hours (SW40; L7, Beckman & Coulter). Finally, the proteasomes were purified on a MonoQ-column and eluted with an NaCl-gradient at about 280 mM NaCl. The fractions containing purified proteasome were dialysed against 50 mM NaCl in TEAD and stored on ice. The purity was determined using SDS-PAGE.
(§2) Suc-LLVY-AMC, Z-VGR-AMC and LLE-AMC (BACHEM, Calbiochem) was used, in order to determine the chymotrypsin-like, trypsin-like or caspase-like (post-acidic)-activities of the proteasome. Substrate was incubated with proteasome at 37° C. in assay-buffer (20 mM Tris/Cl, pH 7.2, 1 mM EDTA, 1 mM DTT) for one hour. 100 ng proteasome was pre-incubated with 0.01-10 μM of the inhibitor for […]. The reaction was started by the addition of substrate (50 μM). The AMC as released was detected using fluorescence emission at 460 nm (excitation at 390 nm) using a TECAN-fluorimeter. The activity was calculated in fluorescence-units. The inhibition is depicted by IC50-values.
The chymotrypsin-like (Suc-LLVY-AMC), the trypsin-like (Bz-VGR-AMC), and the caspase-like (Z-LLE-AMC)-activities of 20S proteasomes were determined following incubation for one hour at 37° C.
(§3) The IC50-values form the inhibition of the proteasome were calculated at increasing concentrations of the inhibitor. The samples were pre-incubated for 15 min in ice. The assay was started through the addition of 50 μM of one of the following fluorogenic peptide substrates:
(§4) The release of MCA was determined at 460 nm emission (excitation 390 nm). The IC50-values as calculated for MG132 served as controls.

[2] = tested on: caspase 3/7 activation in HeLa-cells; assay: Apoptosis-assay, caspase 3/7-activity (Apo-One); format: cell-based; settings: 1 μM, 20 hours
Description: HeLa-cells that were cultivated for 20 hours in the presence of the given inhibitor, were subsequently incubated for 2 hours with caspase-substrate (Apo-One; Promega). The activation of caspases 3/7 was measured at 538 nm (excitation at 485 nm). Treatment of the cells with TNFα or with MG132 served as control.
For this, 10,000 HeLa-cells pro well were seeded in a 96-well-plate, and co-cultivated for 20 hours with 1 μM of the inhibitors 7, 8, 11, 13-16, 18, 20-23 and 25-28. The induction of apoptosis was determined by measuring of the caspase 3/7-activity (Apo-One®-Assay, Promega).

[3] = molecular target: T2, 20S proteasome β2 trypsin-like activity (VGR-MCA) (Homo sapiens, UniProt P49720+Q99436); assay: Protease assay, trypsin-like activity of isolated 20S proteasomes; format: biochemical; settings: isolated 20S proteasome; VGR-MCA 50 μM; 15 min pre-incubation; read-out: IC50 β2 Trypsin-like (R)
T2 construct: Proteasomes were isolated from red blood cells; from tissue; host or cells: red blood cells
Description: as §1, §2
The effects thereof were compared with the one of the commonly used proteasomal inhibitor 3 (MG132). The chymotrypsin-like (Suc-LLVY-AMC), the trypsin-like (Bz-VGR-AMC), and the caspase-like (Z-LLE-AMC)-activities of 20S proteasomes were determined following incubation for one hour at 37° C.
as §3, §4

[4] = tested on: HeLa-cells; assay: Viability of HeLa-cells, crystal violet-staining; format: cell-based; settings: for rate of survival of HeLa-cells: 10 μM, 20 hours
Description: A, The viability of HeLa-Cells that were incubated with the compounds 7-28 and MG132 (1 μM), was determined using crystal-violet-staining after 20 h.
B, The viability of HeLa-Cells is dependent from the concentration of the inhibitor. HeLa-cells were cultivated for 20 hours in the presence of increasing concentrations (10 to 10000 nM) of the compounds (7, 13, 15, 18, 20-22, 24-28) and MG 132. The survival of the cells was determined using crystal-violet-staining.
The viability of Hela-Cells in the presence of different compounds was tested in […]. The viability of HeLa-cells was tested through crystal violet-staining following the incubation with the inhibitors. The cells were washed once with PBS, fixed with 1% glutardialdehyde for 30 min, and washed again. Finally, the fixed cells were stained with 0.1% crystal violet in PBS for 30 min, and subsequently carefully washed with water, in order to remove unbound dye. The residual dye was eluted with 0.1% Triton X-100 in PBS, and determined at 550 nm.

[5] = tested on: Human melanoma cells (MeWo); assay: Cell cycle arrest in MeWo cells, propidium iodide FACS; format: cell-based; settings: 24 hours
Description: A, Human melanoma cells (MeWo) were treated with increasing concentrations of the compounds 15 or 3 (MG132) for 72 hours. The viability of the cells after the treatment with compound 15 (-♦-) and with MG132 (-□-) was detected by a crystal-violet-staining. B and C, MeWo cells were co-cultivated with the compounds 15 and 3 (MG132) for 24 hours. The cells were subsequently fixed in 70% ethanol, and treated with RNAse A. The DNA was stained with propidium iodide (5 μg/ml), and analysed by means of FACS (FACS Calibur flow cytometer; Beckton Dickinson). The statistical significance was detected by the chi-square-test. The relative distribution of the cells that were present in the G1-(black), in the S-(white) or in the G2 phase (hatched) of the cellular cycle is shown for both compounds as examined (15 in B and MG132 in C).
Human melanoma cells (MeWo) were with the compounds 15 and 3 (MG132) for 24 hours co-cultivated. The cells were washed with PBS, in 70% ethanol fixed and subsequently treated with RNAse A. The DNA was stained with propidium iodide (5 μg/ml) and analysed by means of flow-cytometry (FACS Calibur flow cytometer; Beckton Dickinson). The relative dispersion of the cells that were present in different phases of the cell cycle, could thus be detected. […] The statistical significance was detected by the Chi-square test.

Row | Compound | IC50 [1] | induction of apoptosis (activation of caspase 3 and 7) [2] | IC50 [3] | toxicity [4] | rate of survival of HeLa-cells [4] | concentration giving arrest of the cell cycle in the G2 phase [5]
1 | CC(C)CC(C=O)NC(=O)C(CC(=O)OC(C)(C)C)NC(=O)C(CC(C)C)NC(=O)OCc1ccccc1 (stereo not drawn) [Compound 15, Z-Leu-Asp(O^tBu)Leu-CHO] (Cbz-Leu-Asp(OtBu)-Leu-aldehyde; configuration not given here) | 58 nM | beginning apoptosis; also recorded: strong induction of apoptosis | 155 nM | low toxicity | markedly reduced | 50 nM
2 | CC(C)C[C@H](NC(=O)OCc1ccccc1)C(=O)N[C@@H](CC(C)C)C(=O)N[C@@H](CC(C)C)C(=O)C(=O)Nc1ccccc1 [Compound 28] | 72 nM | beginning apoptosis; also recorded: strong induction of apoptosis |  |  | markedly reduced | 
